In ChEMBL document CHEMBL1201862, “PubChem BioAssay data set” (2004):
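All cell lines were grown in 96-well plates and treated with compound for 48 hours. GI50 marks 50% less growth.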 Active and inactive are the calls of the source. No stated cut-off is given here; in the data, active = GI50 up to about 1.1 µM and inactive = higher.

Key:
Experiment in all cases: NCI tumour cell line growth inhibition, 48 h
EKVX = system: EKVX
SW-620 = system: SW-620
HCC 2998 = system: HCC 2998
A549 = system: A549
SR = system: SR
SN12C = system: SN12C
MDA-MB-435 = system: MDA-MB-435
HOP-92 = system: HOP-92
TK-10 = system: TK-10
ACHN = system: ACHN
SF-295 = system: SF-295
T47D = system: T47D
NCI/ADR-RES = system: NCI/ADR-RES
UACC-62 = system: UACC-62
KM12 = system: KM12
MCF7 = system: MCF7
NCI-H522 = system: NCI-H522
U-251 = system: U-251
OVCAR-4 = system: OVCAR-4
BT-549 = system: BT-549

Row | SMILES | GI50 (EKVX) | GI50 (SW-620) | GI50 (HCC 2998) | GI50 (A549) | GI50 (SR) | GI50 (SN12C) | GI50 (MDA-MB-435) | GI50 (HOP-92) | GI50 (TK-10) | GI50 (ACHN) | GI50 (SF-295) | GI50 (T47D) | GI50 (NCI/ADR-RES) | GI50 (UACC-62) | GI50 (KM12) | GI50 (MCF7) | GI50 (NCI-H522) | GI50 (U-251) | GI50 (OVCAR-4) | GI50 (BT-549)
1 | CCSc1nc(=S)n(-c2ccccc2)c(C)c1C(C)=O | > 100 µM (inactive) | > 100 µM (inactive) | > 100 µM (inactive) | > 100 µM (inactive) | > 100 µM (inactive) | > 100 µM (inactive) | > 100 µM (inactive) | > 100 µM (inactive) | > 100 µM (inactive) | > 100 µM (inactive) | > 100 µM (inactive) | > 100 µM (inactive) | > 100 µM (inactive) | > 100 µM (inactive) | > 100 µM (inactive) | > 100 µM (inactive) | > 100 µM (inactive) | > 100 µM (inactive) | > 100 µM (inactive) | 
2 | Cc1ccc(CCCC(=O)O)cc1C | > 100 µM (inactive) | > 100 µM (inactive) |  | > 100 µM (inactive) | > 100 µM (inactive) | > 100 µM (inactive) | > 100 µM (inactive) | > 100 µM (inactive) | > 100 µM (inactive) | > 100 µM (inactive) | > 100 µM (inactive) |  | > 100 µM (inactive) | > 100 µM (inactive) | > 100 µM (inactive) |  | > 100 µM (inactive) | > 100 µM (inactive) | > 100 µM (inactive) | > 100 µM (inactive)
3 | COC(=O)[C@H](Cc1ccccc1)NP(=O)(O)OCC1OC(n2cc(C)c(=O)[nH]c2=O)CC1N=[N+]=[N-] (stereo partly specified) | > 100 µM (inactive) | > 100 µM (inactive) | > 100 µM (inactive) | > 100 µM (inactive) | > 100 µM (inactive) | > 100 µM (inactive) | > 100 µM (inactive) | > 100 µM (inactive) | > 100 µM (inactive) | > 100 µM (inactive) | > 100 µM (inactive) | > 100 µM (inactive) | > 100 µM (inactive) |  | > 100 µM (inactive) | > 100 µM (inactive) | > 100 µM (inactive) | > 100 µM (inactive) | > 100 µM (inactive) | 
4 | CCn1c(O)c(C(=O)NC(C)c2ccc([N+](=O)[O-])cc2)c(=O)n(CC)c1=S (stereo unspecified) | 3.23 µM (inactive) | 2.43 µM (inactive) | 3.29 µM (inactive) | 1.52 µM (inactive) |  | 3.52 µM (inactive) | 3.62 µM (inactive) | 2.75 µM (inactive) | 4.06 µM (inactive) | 3.1 µM (inactive) | 1 µM (active) | 3.33 µM (inactive) |  | 2.17 µM (inactive) | 2.01 µM (inactive) | 2.34 µM (inactive) |  | 1.84 µM (inactive) | 1.48 µM (inactive) | 2.21 µM (inactive)
5 | CN1CC2=C(N=C(S)NC2c2ccccc2Cl)/C(=C/c2ccccc2Cl)C1 (stereo unspecified) | 43.2 µM (inactive) | > 100 µM (inactive) | > 100 µM (inactive) | 30.5 µM (inactive) | 17.7 µM (inactive) | 46.2 µM (inactive) | 28.8 µM (inactive) | 3.81 µM (inactive) | 71.3 µM (inactive) | 25.1 µM (inactive) | 53.5 µM (inactive) | 58.3 µM (inactive) | 30.5 µM (inactive) | 14.7 µM (inactive) | 56.1 µM (inactive) | > 100 µM (inactive) | 29.6 µM (inactive) | 80.5 µM (inactive) | 14.3 µM (inactive) | 
6 | COC(=O)CCn1cnc2c(SC)ncnc21 | > 100 µM (inactive) | > 100 µM (inactive) |  | > 100 µM (inactive) | > 100 µM (inactive) | > 100 µM (inactive) | > 100 µM (inactive) | > 100 µM (inactive) | > 100 µM (inactive) | > 100 µM (inactive) | > 100 µM (inactive) | > 100 µM (inactive) | > 100 µM (inactive) | > 100 µM (inactive) | > 100 µM (inactive) | > 100 µM (inactive) | > 100 µM (inactive) |  | > 100 µM (inactive) | 
7 | O=C(C(=C(I)I)c1ccccc1)c1ccccc1 | 28.8 µM (inactive) | 28.8 µM (inactive) | > 10 µM (inactive) | 36.9 µM (inactive) | 14.2 µM (inactive) | 24 µM (inactive) | 31.1 µM (inactive) | 33 µM (inactive) | 28.4 µM (inactive) | 29.7 µM (inactive) | 21.7 µM (inactive) |  | 28.6 µM (inactive) | 18.2 µM (inactive) |  | 49.8 µM (inactive) |  |  | 39.9 µM (inactive) | 55.7 µM (inactive)
8 | O=C(O)CCCc1ccc2c(c1)CC1(C2)Cc2ccc(CCCC(=O)O)cc2C1 | > 100 µM (inactive) |  | > 100 µM (inactive) | > 100 µM (inactive) | > 100 µM (inactive) | > 100 µM (inactive) | > 100 µM (inactive) | > 100 µM (inactive) | > 100 µM (inactive) | > 100 µM (inactive) | > 100 µM (inactive) | > 100 µM (inactive) | > 100 µM (inactive) | > 100 µM (inactive) | > 100 µM (inactive) | > 100 µM (inactive) | > 100 µM (inactive) | > 100 µM (inactive) | > 100 µM (inactive) | 
